Laboratory results published in US20120258998A1, “Fusion genes in gastrointestinal cancer” (priority 2011, published 2012).
Read-outs that look alike come from different tables or passages of the source.

Legend:
Type in all cases: cell-based
AGS cells = assay: Cell proliferation assay, AGS fusion negative cells
Description: Gastric cancer cells were transfected with either specific siRNAs targeted to the CD44-SLC1A2 fusion site (100 nM, custom siRNA siGENOME with SMART selection, Dharmacon) or negative control scrambled siRNAs using siPORT™ NeoFX™ transfection reagent (Applied Biosystem) in Optimem Medium (Invitrogen) following the manufacturer's protocol. After 24, 48, and 72 hours siRNA treatment, cells were subjected for downstream analysis. For overexpression studies, the full length coding regions of CD44-SLC1A2 cDNA were inserted into the pEGFP-N1 vector. Control vectors or fusion-GFP vectors were introduced into HFE145 cells, and stable transfectants were selected using puromycin for 4 weeks. Cell proliferation assays were performed using a CellTiter-96 Aqueous Nonradioactive Cell Proliferation Assay kit (Promega) following the manufacturer's instructions and the plates were measured by PerkinElmer plate reader. Cell invasion assays were performed using Biocoat™ Matrigel™ invasion chambers with 8 μm pore filter inserts (BD Bioscience). 48 hours after transfection, 5×10^4 cells were transferred to the upper matrigel chamber in 500 μl of serum-free medium and incubated for 24 hours. Invading cells were counted using light microscopy. Each assay was performed in triplicate, and the results were averaged over three independent experiments. […]

CD44-SLC1A2 fusion gene = assay: RT-PCR of CD44-SLC1A2 expression after fusion-specific siRNA treatment; settings: SNU16 cells, siRNA 100 nM, vs scrambled siRNA
Description: (§1) Gastric cancer RNAs were reverse transcribed by SuperScript II reverse transcriptase enzyme using oligo-dT (T18) primers (Invitrogen). To detect CD44-SLC1A2, RT-PCR was performed using forward primers to CD44 exon 1 (5′-[…]-3′ (SEQ ID NO: 3)) and reverse primers to either SLC1A2 exon 3 (5′-[…]-3′ (SEQ ID NO: 4)); exon4 (5′-[…]-3′) (SEQ ID NO: 5); exons (5′-[…]-3′ (SEQ ID NO: 6)) or exon 6 (5′[…]-3′ (SEQ ID NO: 7)). Products were resolved by gel electrophoresis and bands of interest excised and cloned for subsequent analysis. To evaluate wild-type CD44 and SLC1A2 expression independently of CD44-SLC1A2, we used CD44 primers targeting exons 3, 4, 5; and SLC1A2 primers targeting exon 1. CD44-SLC1A2 RT-PCR involving clinical specimens (FIG. 1) was performed in an unselected cohort of gastric cancer patients. Reactions were repeated a minimum of three independent times.
(§2) Gastric cancer cells were transfected with either specific siRNAs targeted to the CD44-SLC1A2 fusion site (100 nM, custom siRNA siGENOME with SMART selection, Dharmacon) or negative control scrambled siRNAs using siPORT™ NeoFX™ transfection reagent (Applied Biosystem) in Optimem Medium (Invitrogen) following the manufacturer's protocol. After 24, 48, and 72 hours siRNA treatment, cells were subjected for downstream analysis. […]

SLC1A2 protein [1] = assay: Immunofluorescence staining with SLC1A2 antibodies; settings: SNU16 cells, control vs fusion silenced
Description: (§3) Gastric cancer cells were transfected with either specific siRNAs targeted to the CD44-SLC1A2 fusion site (100 nM, custom siRNA siGENOME with SMART selection, Dharmacon) or negative control scrambled siRNAs using siPORT™ NeoFX™ transfection reagent (Applied Biosystem) in Optimem Medium (Invitrogen) following the manufacturer's protocol. After 24, 48, and 72 hours siRNA treatment, cells were subjected for downstream analysis. For overexpression studies, the full length coding regions of CD44-SLC1A2 cDNA were inserted into the pEGFP-N1 vector. Control vectors or fusion-GFP vectors were introduced into HFE145 cells, and stable transfectants were selected using puromycin for 4 weeks.
Cells were fixed with 3.7% formaldehyde followed by permeabilisation using 0.1% Triton X-100. After 3× washes with 1×PBS, cells were blocked with 1% BSA. Subsequently, cells were incubated with primary SLC1A2 antibodies (Cell Signaling Technology) for 2 hours followed by 2 hours secondary antibody (Sigma) incubation. Images were taken using a Nikon Eclipse TE2000-U microscope.

SNU16 cells [2] = assay: Matrigel cell invasion assay, SNU16; settings: vs control
Description: as §3
(§4) Cell proliferation assays were performed using a CellTiter-96 Aqueous Nonradioactive Cell Proliferation Assay kit (Promega) following the manufacturer's instructions and the plates were measured by PerkinElmer plate reader. Cell invasion assays were performed using Biocoat™ Matrigel™ invasion chambers with 8 μm pore filter inserts (BD Bioscience). 48 hours after transfection, 5×10^4 cells were transferred to the upper matrigel chamber in 500 μl of serum-free medium and incubated for 24 hours. Invading cells were counted using light microscopy. Each assay was performed in triplicate, and the results were averaged over three independent experiments.

[3] = system: wild-type CD44 and SLC1A2; assay: RT-PCR of wild-type CD44 and SLC1A2 expression after fusion-specific siRNA treatment; settings: SNU16 cells
Description: as §1, §2

SNU16 cells [4] = assay: Colony formation assay, SNU16; settings: vs scrambled siRNA
Description: as §3
Base layers of 0.5% Gum Agar in 1× McCoy's 5 A and 10% FBS were poured into 6-well plates and allowed to harden at 4° C. After 48 hours siRNA transfection, 50,000 cells/well were seeded in complete media plus agar mixture at 42° C. and seeded on top of the solidified base layer. Plates were incubated at 37° C. in for 3-4 weeks, during which plates were fed drop-wise with complete media. After 3-4 weeks, plates were photographed using the Kodak GL 200 System (EpiWhite illumination). Each assay was performed in triplicate, and the results were averaged over three independent experiments.

SNU16 cells [5] = assay: Cell proliferation assay, SNU16; settings: vs scrambled/control siRNA
Description: as §3, §4

SLC1A2 protein [6] = assay: Western blotting with anti-SLC1A2 antibodies, SNU16 membrane fraction; settings: after fusion-specific siRNA
Description: Cells were harvested in lysis buffer (10 mM Tris.Cl pH 7.5, 150 mM NaCl, 1% Triton X-114) for 1 hour at […], and centrifuged at 800 g. Supernatants were incubated at 30° C. for 5-10 min and further centrifuged at RT, 300 g. Western blotting was performed on membrane fractions using the following antibodies and dilutions: 1:500 SLC1A2/EAAT2 (Cell Signaling Technologies), 1:2000 α-tubulin (Cell Signaling Technologies). Experiments were repeated a minimum of three independent times.
as §3

SNU16 cells [7] = assay: 5-Fluorouracil sensitivity, MTS proliferation assay; settings: SNU16 cells before and after CD44-SLC1A2 siRNA1 silencing, vs scrambled siRNA
Description: (§5) Gastric cancer cells and primary tissues were lysed with glutamate assay buffer and glutamate concentrations were determined using a Glutamate Assay Kit (BioVision, USA). Briefly, to each cellular lysate, a vendor-provided glutamate Enzyme Mix was added which recognizes glutamate as a specific substrate leading to proportional color development. For cisplatin treatments, cells were seeded into 96 well plates after siRNA transfection. Subsequently, cisplatin or 5-FU at increasing dosages were added (0-1 mM) to respective wells. Cells were subjected to MTS proliferation assays after 48 hours of drug treatment. Each assay was performed in triplicate, and the results were averaged over three independent experiments.

SNU16 cells [8] = assay: Cisplatin sensitivity, MTS proliferation assay; settings: 48 hours of drug treatment, read-out: GI50 (concentration required to cause 50% growth inhibition)
Description: as §5

siRNA2: second siRNA targeting the CD44-SLC1A2 fusion site, 5′-GCACAUCGUGCCAACAAUAUU-3′ (SEQ ID NO: 28) (chemistry not given here)
proliferation of AGS cells after fusion-specific siRNA (AGS cells): proliferation of AGS cells is not affected | CD44-SLC1A2 expression (CD44-SLC1A2 fusion gene): Reduction of CD44-SLC1A2 expression | membranous expression of SLC1A2 (immunofluorescence) (SLC1A2 protein [1]): significantly reduced | cell invasion rate (SNU16 cells [2]): significant reduction of invasion rate | independent (regular) CD44 and SLC1A2 expression [3]: without impairing regular CD44 and SLC1A2 expression | colony formation (anchorage-independent growth) (SNU16 cells [4]): reduction in numbers of colonies formed | proliferation rate (SNU16 cells [5]): significant decrease in proliferation rate | SLC1A2 protein expression (Western blotting) (SLC1A2 protein [6]): knockdown of SLC1A2 protein expression

siRNA1: siRNA targeting the CD44-SLC1A2 fusion site, 5′-CGCAGAUCGUGCCAACAAUUU-3′ (SEQ ID NO: 27) (chemistry not given here)
proliferation of AGS cells after fusion-specific siRNA (AGS cells): proliferation of AGS cells is not affected

O=c1[nH]cc(F)c(=O)[nH]1 [5-fluorouracil]
5-Fluorouracil sensitivity, control vs CD44-SLC1A2 silenced cells (SNU16 cells [7]): no differences between control and silenced cells were observed | 5-Fluorouracil sensitivity, control vs CD44-SLC1A2 silenced cells (SNU16 cells [7]; listed as 5-Fluorouracil): no significant change in sensitivity to 5-Fluorouracil

N.N.[Cl][Pt][Cl] [cisplatin]
GI50 (SNU16 cells [8]; SNU16 cells after CD44-SLC1A2 siRNA treatment): 3.96 µM | GI50 (SNU16 cells [8]; control SNU16 cells): 11.8 µM
